Results taken from article PMC10826971, “Evaluating protein cross-linking as a therapeutic strategy to stabilize SOD1 variants in a mouse model of familial ALS” (PLOS Biology, 2024).
“Also recorded” adds a separate entry of the source.

Experiments:
SOD1 variants [1] = test: Plate-based and gel-based SOD1 enzymatic activity assays (results in words); assay type: biochemical, human
Method: (§1) Enzymatic activity of SOD1 variants were assessed using a gel-based assay with riboflavin and nitroblue tetrazolium (NBT) as previously described. […] The samples were mixed with native sample buffer (Bio-Rad) in a 1:1 ratio and were loaded into each well to a 12% polyacrylamide gel (Bio-Rad). The gel was stained in dark using 50 mM potassium phosphate (pH 7.8), 0.13 mg/mL of NBT, and 0.1 mg/mL of riboflavin for 45 min. The gel was exposed to light for with 1 μL/mL of N,N,N^′,N^′-tetramethylethylenediamine (TEMED) for 2 min. SOD1 activity can be seen as colorless bands as the SOD1 scavenges the superoxide that inhibits insoluble blue color formazan formation.
(§2) All samples were prepared as described in gel-based enzymatic activity assay section and were (10 μL) mixed with 160 μL of solution A (6,000 units/mL catalase, 10 mM hypoxanthine, and 5 mM XTT) and 160 μL of solution B (xanthine oxidase 16 mg/mL) in a flat-bottom 96-well plate and was monitored for absorbance at 490 nm for 30 min. All samples were analyzed in technical triplicate using slope function in Microsoft Excel.

SOD1 variants [2] = target: T1, SOD1 variants (Homo sapiens, UniProt P00441, H47R); test: as above; assay type: biochemical; details: plate-based and gel-based assays
T1 construct: made in house; host or cells: EGy118ΔSOD1 yeast, YEp351 expression vector
Method: as §1, §2

SOD1 = SOD1 (Homo sapiens, UniProt P00441); assay type: binding
Method: A computational search was performed in PubChem to identify all compounds containing a cyclic disulfide motif. […] Of these, 69 compounds cross-linked SOD1 with a wide array of reaction rates. Only 2 compounds could cross-link 100% of SOD1 during the assay, including one 5-membered cyclic disulfide (4-Amino-1,2-Dithiolane-4-Carboxylic Acid) and one 6-membered cyclic thiosulfinate (1,2-dithiane 1-oxide).

[3] = Blood-brain barrier penetration; assay type: in vivo, mouse

T1 sequence (P00441 2-154 H47R): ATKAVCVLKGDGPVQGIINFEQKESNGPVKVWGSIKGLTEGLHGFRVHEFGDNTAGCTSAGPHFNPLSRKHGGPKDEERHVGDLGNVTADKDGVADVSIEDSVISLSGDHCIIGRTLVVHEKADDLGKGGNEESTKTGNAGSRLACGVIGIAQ
Sequence of SOD1 (P00441 2-154 limits assumed): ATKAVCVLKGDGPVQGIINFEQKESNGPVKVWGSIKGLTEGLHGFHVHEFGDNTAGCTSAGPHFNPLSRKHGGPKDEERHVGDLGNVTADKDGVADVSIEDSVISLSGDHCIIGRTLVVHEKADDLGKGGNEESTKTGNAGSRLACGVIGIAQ

SMILES: [O-][S+]1CCCCS1 (stereo not shown) [S-XL6, 1,2-dithiane-1-oxide]
- Enzymatic activity (SOD1 variants [1]; cross-linked fALS SOD1 variants, summary table): Activity of cross-linked quaternary structures of fALS SOD1 variants are more comparable to uncross-linked wild-type SOD1
- enzymatic activity of SOD1^A4V, SOD1^G93A and SOD1^G85R after cross-linking (SOD1 variants [1]; plate-based and gel-based assays): levels comparable to that of wild-type SOD1; also recorded: increased to that of wild-type SOD1
- enzymatic activity of SOD1^H46R after cross-linking (SOD1 variants [2]): No change in activity; also recorded: did not affect
- SOD1 cross-linked during the assay (SOD1): 100%
- blood–brain barrier crossing ([3]; fALS mouse model): crosses the blood–brain barrier
- log BB at 1 h ([3]; transgenic SOD1^G93A, mouse, brain/blood, subcutaneous, 30 mg/kg): 0.02
- Kp at 1 h ([3]; transgenic SOD1^G93A, mouse, brain/blood, subcutaneous, 30 mg/kg, read-out: % BBB penetration): 0.0002
